Measured values from patent US20150203526A1, “NOVEL 19-NOR-STEROIDS AND THEIR USE FOR TREATING PROGESTERONE- DEPENDENT CONDITIONS” (REPROS THERAPEUTICS INC., priority 2010, published 2015).
≈ marks a conversion by molar mass, not a printed value. Like-named read-outs stand apart in the source and are kept apart here.

Tests used:
[1] = Thermodynamic solubility (solid shaken in solvent at 37° C., filtrate by LC/UV); format: physicochemical
Protocol: Briefly, 300 ul of solvent (ethanol, 0.1 M HCl or distilled H2O) were added to 14-16 mg of the solid compound (5 parallel measurements per sample, per solvent, mean concentrations 93-107 mM). The mixtures were shaken at 37° C. for 24 and 72 hours. Concentrations of the filtrates were determined by liquid chromatography with UV detector (LC/UV) with 3-point calibration.
Crystal form was checked by X-ray powder diffraction (XRPD) after recovering the slurry at 24 and 72 hours. […] The exact cause of this observed phenomenon is not known.

[2] = test system: liver aminotransferases; test: Clinical trials of daily oral CDB-4124 (Proellex): liver toxicity / liver enzymes; format: in vivo, human
Protocol: (§1) The maximum concentrations of CDB-4124 and its mono-demethylated metabolite (CDB-4453) for the 12.5 mg dose were 25% of the 50 mg dose. All liver toxicities resolved in those women that returned for safety follow-ups, including those subjects that developed liver-associated serious adverse effects (SAEs).
To date, over 600 patients, including women with confirmed cases of endometriosis or uterine fibroids, have participated in double blind and open label clinical trials in which patients were administered daily oral capsules containing doses of 12.5 mg, 25 mg or 50 mg CDB-4124 (Proellex) for over one month. Of these patients, about 500 received Proellex and about 130 received a placebo. Of the patients receiving Proellex, about 190 received a dose of 50 mg CDB-4124 per day, about 260 received a dose of 25 mg CDB-4124 per day and about 55 received a dose of 12.5 mg per day.
Liver enzymes were frequently monitored in participating subjects. The liver enzyme level at which the clinical trials would be discontinued was set at an increase in liver aminotransferases greater than, or equal to three times the Upper Limit of Normal (≧3×ULN).
Of the nine subjects with a confirmed increase in liver enzymes≧3×ULN, seven were severe enough elevations to be reported to the FDA as SAEs. One of these seven subjects had been receiving a dose of 25 mg CDB-4124 per day; the remaining six subjects had been receiving a dose of 50 mg CDB-4124 per day. Liver enzymes≧3×ULN persisted in five of the nine subjects with a confirmed increase in liver enzymes≧3×ULN. These five subjects had previously been dosed with the 50 mg dose. One of these subjects is receiving oral medication for treatment of their liver condition. Clinical trials involving CDB-4124 at all doses were voluntarily suspended as a result of these SAEs and were subsequently placed on clinical hold by the United States Food and Drug Administration for safety reasons.

[3] = Pharmacokinetic studies on clinical trial subjects after oral CDB-4124; format: in vivo, human
Protocol: as §1
(§2) Pharmacokinetic studies performed on participating subjects detected a high Cmax and a Tmax at 1-2 hours following administration. […] Metabolism of CDB-4124 by the liver provides the opportunity for liver damage and greatly reduces the concentration of the antiprogestin before it reaches the systemic circulation. Thus, alternative routes of administration of antiprogestins that avoid first pass metabolism such as, without limitation, intravenous, intramuscular, and sublingual, should allow antiprogestins to be absorbed directly into the systemic circulation and thereby provide a method for treating progestone-dependent conditions while avoiding liver toxicity. Administration routes which avoid first pass metabolism may also require less drug per dose to achieve the same therapeutic benefit relative to oral administration.

[4] = test system: human hepatocytes; test: Metabolism in primary cultures of human hepatocytes; format: in vitro ADME
Protocol: as §2

[5] = test system: animal hepatocytes; test: Metabolism in primary cultures of animal hepatocytes; format: in vitro ADME
Protocol: as §2

[6] = test system: DMBA-induced breast tumors; test: DMBA-induced breast tumor pre-clinical study; format: in vivo, rodents; conditions: subcutaneous injection
Protocol: Pre-clinical studies were performed on rodents with breast tumors induced by 7,12-Dimethylbenz(a)anthracene (DMBA).

[7] = Oral vs vaginal pharmacokinetics in beagles (25 mg); format: in vivo
Protocol: FIG. 1 illustrates a comparison of the Cmax (peak serum concentration) and area under the curve (AUC) following oral and vaginal administration of CDB-4124 or CDB-4453 at a 25 mg dose in beagles.
Beagles were administered 25 mg of CDB-4124 or CDB-4453 (the monodemethylated metabolite of CDB-4124) formulated as either a micronized powder or a vaginal suppository. […] Moreover, systemic exposure of the drug is much lower when administered locally (compare AUC for CDB-4124 and CDB-4453 when administered vaginally vs. orally).

[8] = Cmax after vaginal administration extrapolated from beagles to humans; format: in vivo; conditions: for Predicted Cmax for vaginal administration as percentage of the same dose administered orally: humans
Protocol: FIG. 2 illustrates the actual Cmax observed for Proellex (CDB-4124) and its monodemethylated metabolite CDB-4453, following oral administration of CDB-4124 at 12.5 mg, 25 mg and 50 mg doses as well as the projected Cmax for 3 mg, 6 mg and 9 mg doses. FIG. 2 also illustrates the actual Cmax observed for Proellex (CDB-4124) and its monodemethylated metabolite CDB-4453, following vaginal administration of CDB-4124 at 12.5 mg, 25 mg and 50 mg doses.
The maximum circulating concentrations (Cmax) of CDB-4124 obtained following vaginal administration to beagles were extrapolated to humans for the 12.5 mg, 25 mg and 50 mg doses actually administered during the Phase III clinical studies.
Because a high concentration of the drug in the systemic circulation (and associated first pass metabolism of the drug) is not reached by local administration, avoidance of the severe liver toxicity observed in a small percentage of subjects following oral administration of CDB-4124 in previous Phase III clinical studies at doses of 25 and 50 mg is a surprising advantage of administering the drug locally. Similar advantages should inure to local administration of other antiprogestins.

[9] = test system: progesterone-induced endometrial proliferation; test: Anti-Clauberg study, subcutaneous vs oral; format: in vivo, rabbits
Excerpt: FIG. 3 illustrates a comparison of the inhibition of progesterone-induced endometrial proliferation in estradiol-primed immature rabbits following subcutaneous injection and oral administration of CDB-4124
To determine whether the low circulating levels of CDB-4124 when administered locally could have any impact predictive of efficacy, an anti-Clauberg study was run in which immature estradiol-primed rabbits were coadministered progesterone and various doses of CDB-4124 by either subcutaneous or oral administration. At least 3 different highly trained individuals evaluated the rabbit uterus for glandular growth, for complexity and overall progesterone-induced “development”. The inhibition (by percentage) of progesterone-induced endometrial proliferation at each dose was assayed. […] However, maximal inhibition required a ˜8-fold increase in dosage when administered orally (i.e. 8 mg/kg). Importantly 8 mg/kg corresponds closely to the 50 mg/day dose of CDB-4124 administered to the female subjects described in Example 3.

[10] = test system: progesterone-induced endometrial proliferation; test: Anti-Clauberg study, vaginal vs oral (McPhail index); format: in vivo, rabbits
Protocol: FIG. 4 compares the antiprogestational effects of three doses of CDB-4124 when delivered orally versus when delivered to the vaginal mucosa of estradiol-primed immature rabbits in the presence of progesterone, as measured by a decrease in the McPhail index. Treatment with progesterone alone (vehicle control) provided a baseline measurement of progestational activity.
Another anti-Clauberg study was run in which immature estradiol-primed rabbits were administered progesterone alone (vehicle control) or were co-administered progesterone and three doses of CDB-4124 by either vaginal or oral administration. The inhibition of progesterone-induced endometrial proliferation at each dose was assayed. FIG. 3 illustrates the decrease in the McPhail index following increasing doses of CDB-4124 administered by either route. Maximal inhibition (i.e. a decrease in the McPhail index to 1.5) occurred at 0.2 mg/kg CDB-4124 when administered vaginally, compared to 0.8 mg/kg when administered orally.

[11] = Thermodynamic solubility (solid shaken in solvent at 37° C., filtrate by LC/UV); format: physicochemical; conditions: water and 1.0 M HCl, 24 vs 72 hours

SMILES: COCC(=O)[C@@]1(OC(C)=O)CC[C@H]2[C@@H]3CCC4=CC(=O)CCC4=C3[C@@H](c3ccc(N(C)C)cc3)C[C@@]21C [CDB-4124]
- solubility thermodynamic at 72 h ([1]; 0.1M HCl, 24 h, read-out: Thermodynamic solubility, 0.1M HCl, Mean): 53.09 µM (≈ 26.8 µg/mL)
- solubility thermodynamic at 72 h ([1]; 0.1M HCl, 72 h, read-out: Thermodynamic solubility, 0.1M HCl, Mean): 56.12 µM (≈ 28.4 µg/mL)
- solubility thermodynamic at 72 h ([1]; distilled water, 24 h, read-out: Thermodynamic solubility, distilled water, Mean): 7.10 µM (≈ 3.59 µg/mL)
- solubility thermodynamic at 72 h ([1]; distilled water, 72 h, read-out: Thermodynamic solubility, distilled water, Mean): 3.20 µM (≈ 1.62 µg/mL)
- Thermodynamic solubility, Ethanol, Mean ([1]; ethanol, 24 h): 36800 µM
- Thermodynamic solubility, Ethanol, Mean ([1]; ethanol, 72 h): 34100 µM
- Subjects with elevations reported as SAEs ([2]; 25 mg CDB-4124 per day): One
- Subjects with elevations reported as SAEs ([2]; 50 mg CDB-4124 per day): six
- Subjects with elevations severe enough to be reported as SAEs ([2]; all doses): seven
- Subjects found to exhibit an increase in liver enzymes ≧3×ULN ([2]; all doses, before repeat test): thirteen
- Subjects with confirmed increase in liver enzymes ≧3×ULN ([2]; all doses, confirmed by repeat test in 48 hours): nine
- Adverse liver toxicity signals ([2]; oral, 12.5 mg): no adverse liver toxicity signals different from placebo
- Liver toxicity effects at 25 mg/day compared with 50 mg/day ([2]; oral, 25 mg/day vs 50 mg/day): significantly lower in frequency and intensity
- Women exhibiting severe liver toxicity ([2]; oral, 50 mg/day): 3-4%
- Subjects in whom liver enzymes ≧3×ULN persisted ([2]; previously dosed with the 50 mg dose): five
- Cmax ([3]; following oral administration): high
- Monodemethylated metabolite detected (first pass metabolism) ([3]; following oral administration): Large quantities
- Tmax ([3]; following oral administration): 1 to 2 h
- Maximum concentration for the 12.5 mg dose relative to the 50 mg dose ([3]; oral CDB-4124, 12.5 mg vs 50 mg): 25%
- Production of the mono-demethylated metabolite [4]: rapidly produce the mono-demethylated metabolite
- Production of the mono-demethylated metabolite [5]: rapidly produce the mono-demethylated metabolite
- Effect on quantity and size of DMBA-induced breast tumors [6]: effective in reducing the quantity and size of DMBA-induced breast tumors
- Metabolism after peak plasma concentration ([7]; oral micronized powder): rapidly metabolized
- Metabolism ([7]; vaginal suppository): metabolized slowly
- Peak plasma concentrations (Cmax) ([7]; vaginal suppository): relatively low
- Systemic exposure (AUC), local vs oral ([7]; vaginal vs oral): much lower
- Predicted Cmax for vaginal administration as percentage of the same dose administered orally ([8]; 12.5 mg dose): approximately 6.5%
- Cmax with 12.5 mg vaginal dose relative to 50 mg oral dose ([8]; 12.5 mg vaginal vs 50 mg oral): 2%
- Predicted Cmax for vaginal administration as percentage of the same dose administered orally ([8]; 50 mg dose): approximately 2%
- Dose required for maximal inhibition ([9]; oral): 8 mg/kg
- Increase in dosage required for maximal inhibition, oral vs subcutaneous ([9]; oral vs subcutaneous): ~8 fold
- Dose at which maximal inhibition was observed ([9]; subcutaneous): less than 1 mg/kg
- McPhail index at maximal inhibition ([10]; 0.2 mg/kg vaginal or 0.8 mg/kg oral): 1.5
- Dose at which maximal inhibition occurred ([10]; oral): 0.8 mg/kg
- Dose at which maximal inhibition occurred ([10]; vaginal): 0.2 mg/kg
- Antiprogestational activity of vaginal delivery relative to the same oral dose ([10]; vaginal vs oral): four times the antiprogestational activity

SMILES: COCC(=O)[C@@]1(OC(C)=O)CC[C@H]2[C@@H]3CCC4=CC(=O)CCC4=C3[C@@H](c3ccc(C(C)=O)cc3)C[C@@]21C [CDB-4239, 21-methoxy-17α-acetoxy-11β-(4-acetylphenyl)-19-norpregna-4,9-diene-3,20-dione]
- solubility thermodynamic at 24 h ([1]; organic solvent or mixture, thermodynamic from solid, ethanol, 24 h, read-out: Thermodynamic solubility, Ethanol, Mean): > 98200 µM
- solubility thermodynamic at 72 h ([1]; organic solvent or mixture, thermodynamic from solid, ethanol, 72 h, read-out: Thermodynamic solubility, Ethanol, Mean): > 100000 µM
- solubility thermodynamic at 24 h ([1]; simulated gastric fluid, thermodynamic from solid, 0.1M HCl, 24 h, read-out: Thermodynamic solubility, 0.1M HCl, Mean): 140 µM (≈ 70.8 µg/mL)
- solubility thermodynamic at 72 h ([1]; simulated gastric fluid, thermodynamic from solid, 0.1M HCl, 72 h, read-out: Thermodynamic solubility, 0.1M HCl, Mean): 110 µM (≈ 55.6 µg/mL)
- solubility thermodynamic at 24 h ([1]; thermodynamic from solid, distilled water, 24 h, read-out: Thermodynamic solubility, Distilled water, Mean): 141 µM (≈ 70.9 µg/mL)
- solubility thermodynamic at 72 h ([1]; thermodynamic from solid, distilled water, 72 h, read-out: Thermodynamic solubility, distilled water, Mean): 54.8 µM (≈ 27.7 µg/mL)
- Tendency of water and HCl solubilities between 24 and 72 hours [11]: decreasing tendency
